The subject of assay [1] is IL-4. As to the kind of experiment: T-cell receptor (anti-CD3/CD28)-induced IL-4 on PBMCs. The assay is classed as cell-based. As to conditions: Homo sapiens, PBMC, anti-CD3/CD28 beads, 24 hours, ELISA, read-out: TCR-PBMCs IL-4 Protein IC50. As for the experimental part: (§1) Cryopreserved human Peripheral Blood Mononuclear cells (PBMCs) from healthy adult donors were obtained from Zen Bio, Inc (Cat No. SER-PBMC-F). Cells were cultured in 96-well plates with lymphocyte media (Cat No. LYMPH-1) and were pre-treated with test materials (≤100 μM) for 2 hours and later co-treated with test materials and anti-CD3/CD28 beads (Thermo-Fisher; Cat No. 11131D) at 1:0.4 PBMC:bead ratio for 24 hours at 37° C. and 5% CO2. After incubation, cell media supernatants were harvested and used to measure cytokine levels (IL-4, IL-5, IL-10) using ELISA kits (BD Biosciences® #555194, #555157; R&D Systems® #DY317). Results were represented as percent of inhibition relative to untreated and anti-CD3/CD28 beads-only treated cells. IC50 values were determined by non-linear regression analysis using the four-parameter logistic equation.

In assay [2] the test system is IL-5. The assay is described as follows: T-cell receptor (anti-CD3/CD28)-induced IL-5 on PBMCs. In kind it is cell-based. The conditions noted are these: Homo sapiens, PBMC, anti-CD3/CD28 beads, 24 hours, ELISA, read-out: TCR-PBMCs IL-5 Protein IC50. As for the experimental part:
as §1

Assay [3] concerns Balb/C mice. As to the kind of experiment: Oxazolone-induced delayed-type hypersensitivity (DTH) in vivo model. The procedure, abridged: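 Male Balb/C mice (8-10 weeks) sensitized with 3% oxazolone on dorsal skin, ear-challenged on day 7 with 0.5%; test materials at 3% w/v topically to both ear surfaces 30 min post-challenge in 60:40 H2O:EtOH. Ear edema and IL-4 ELISA of 6-mm biopsies at 24 h; % inhibition, n=5-15/group.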

Assay [4] deals with IL-13. The assay is described as follows: Concanavalin-A-induced IL-13 on PBMCs. As to conditions: Homo sapiens, PBMC, ConA, 24 hours, ELISA. The assay is classed as cell-based.
Assay [5] concerns P. acnes (ATCC 6919). The assay is described as follows: Minimal inhibitory concentration (MIC) against P. acnes. In kind it is cell-based, Propionibacterium acnes. The conditions noted are these: Cutibacterium acnes, ATCC6919, 72 h, P. acnes ATCC 6919, 10^6 CFU/mL, read-out: MIC. As for the experimental part:
To determine minimal inhibitory concentration (MIC), reagents were dissolved in vehicle (5% v/v) and then added to bacteria suspension. P. acnes (ATCC® 6919TM) at 10^6 CFU/mL was incubated with test materials at the concentrations of two-fold serial dilution (0.25-500 μg/mL) and incubated for 72 hours (P. acnes).

In assay [6] the test system is IL-8. As to the kind of experiment: P. acnes-induced IL-8 on human NHEKs. In kind it is cell-based. As to conditions: for pIC50: Homo sapiens, NHEK, live P. acnes 10^7 CFU, 24 hours, ELISA, read-out: P. acnes-NHEK IL-8 Protein IC50; for P. acnes-induced IL-8 production: cultured human keratinocytes exposed to P. acnes. As for the experimental part: Normal human epidermal keratinocytes (NHEKs) from neonatal donors were obtained from Thermo-Fisher (Cat No. C-001-5C). Cells were cultured in 96-well plates for 24 hours with EpiLife media (Cat No. MEPI500CA) supplemented with keratinocytes growth supplement (Cat No. S0015). On Day 2, media was removed and replaced with supplement-depleted medium for 24 hours. On Day 3, media was removed and cells were pre-treated with test materials ([…]) for 2 hours and later co-treated with test materials and live P. acnes (ATCC® 6919TM) at 10^7 CFU for 24 hours at 37° C. and 5% CO2. After incubation, cell media supernatants were harvested and used to measure pro-inflammatory cytokine levels (IL-8) using ELISA kits (BD Biosciences® #555244). Results were represented as percent of inhibition relative to untreated and P. acnes-only treated cells. IC50 values were determined by non-linear regression analysis using the four-parameter logistic equation.

Assay [7] concerns IL-8. As to the kind of experiment: P. acnes-induced IL-8 protein on human PBMCs (ELISA). In kind it is cell-based. The conditions noted are these: PBMCs + live P. acnes 1:1, test material 30 PM, 24 hours. As for the experimental part: (§2) Cryopreserved human Peripheral Blood Mononuclear cells (PBMCs) from healthy adult donors were obtained from Zen Bio, Inc (Cat No. SER-PBMC-F). Cells were cultured in 12-well plates with lymphocyte media (Cat No. LYMPH-1) and incubated with test materials ([…]) and live P. acnes (ATCC® 6919TM) at 1:1 PBMC: P. acnes bacteria ratio for 24 hours at 37° C. and 5% CO2. After incubation, cell media supernatants were harvested and used to measure pro-inflammatory cytokine levels (IL-8, TNF-α, IL-1b, IL-17) using ELISA kits (BD Biosciences® #557966, #555212, #555244; R&D Systems® #DY317). Total RNA was extracted from cells using the RNAqueous® kit (Ambion®; Cat No. 1912) and cDNA was obtained using the High Capacity RNA-to-cDNA kit (Applied Biosystems®; Cat No. 4387406). Quantitative PCR (qPCR) was performed using the TaqMan® Fast Advanced Master Mix (Applied Biosystems®; Cat No. 4444556) and specific TaqMan®-probes human gene primers CXCL8 (IL-8), IL1B (IL-1b), TNF (TNF-α), IL17A (IL-17A) and GAPDH to calculate the relative gene fold expression change per treatment. Gene expression analysis was performed using the comparative Ct method (also known as the 2-[delta][delta]Ct) approach by comparing the Ct values of P. acnes-only treated cells with the untreated samples and normalized to GAPDH gene expression as endogenous housekeeping gene.

In assay [8] the test system is TNF-α. As to the kind of experiment: P. acnes-induced TNF-α protein on human PBMCs (ELISA). The assay is classed as cell-based. The conditions noted are these: PBMCs + live P. acnes 1:1, test material 30 PM, 24 hours. As for the experimental part: as §2
For assay [9], the system named is CXCL8 (IL-8). As to the kind of experiment: P. acnes-induced IL-8 gene on human PBMCs (qPCR). As to conditions: PBMC, PBMCs + live P. acnes 1:1, test material 30 PM, 24 hours. In kind it is cell-based. As for the experimental part: as §2
[10] abbreviates: Mus musculus, topical to ears @ 3% w/v, 24 hours, read-out: Edema % inhibition.
Setting [11] is: topical to ears @ 3% w/v, 24 hours, ear biopsy ELISA.

Structures are written as SMILES. pIC50: −log10 of the molar value. Converted amounts (≈) assume the structure as drawn.

For `N#Cc1ccc(Oc2ccc3c(c2)COB3O)cc1` [AN2728, reference compound], the figures for the pIC50 in [1], in assay [2] and in [4] were 5.70, 6.00 and 5.42, respectively. In addition, the inhibition in vivo at 2 % in [3] (Mus musculus, topical @2%, 24 hours, read-out: Edema % inhibition) turned out to be 0%. Besides, in [3] (dose 0.4 Mg/ear, average±S.E.), the “Edema (% inhibition)” value worked out at 17 ± 5%. The “IL-4 (% inhibition)” value in [3] (dose 0.4 Mg/ear, average±S.E.) was 76 ± 9%; in assay [3] (topical @2%, 24 hours), 76 (@2%). Besides, the “MPO (% inhibition)” value in assay [3] (dose 0.4 Mg/ear, average±S.E.) is 36 ± 12%.
Consider `C/C(=C\CSCC(NC(=O)NCC(=O)O)C(=O)O)CCCC(C)CCCC(C)CCCC(C)C` (stereo not drawn) [A], for which, in assay [5], the MIC was determined as 10 µg/mL (≈ 20 µM). The pIC50 is less than 4.00 in [1], 4.26 in assay [2] and 6.92 in assay [6]. Also, in assay [3] (setting [10]), the inhibition in vivo at 3 % strength was found to be 44%.
Turning to `C/C(=C\CSC[C@H](NC(=O)N(C)CC(=O)O)C(=O)O)CCCC(C)CCCC(C)CCCC(C)C` (stereo partly drawn) [Compound C, (2R)-2-{[(carboxymethyl)(methyl)carbamoyl]amino}-3-{[(2E)-3,7,11,15-tetramethylhexadec-2-en-1-yl]sulfanyl}propanoic acid], in assay [5], the MIC is 6 µg/mL (≈ 11.7 µM). Moreover, the “IL-8 Protein % inhibition” value in assay [7] turned out to be 8%. The TNFa-Protein % inhibition in assay [8] is given as 0%. Besides, the inhibition at 30 pM in assay [9] was 0%. The pIC50 in [1] was 4.70; in assay [2], 4.34; in assay [6], 7.40; in [4], 5.09. In addition, the inhibition in vivo at 3 % strength in assay [3] (setting [10]) was determined as 53%. Also, the “Edema (% inhibition)” value in [3] (dose 0.2 Mg/ear, average±S.E.) stood at 23 ± 4%; in assay [3] (dose 0.6 Mg/ear, average±S.E.), 53 ± 5%; in [3] (dose 1 Mg/ear, average±S.E.) it was 72 ± 4%. Further, the “IL-4 (% inhibition)” value in assay [3] (dose 0.2 Mg/ear, average±S.E.) stood at 33 ± 9%; in assay [3] (dose 0.6 Mg/ear, average±S.E.), 41 ± 10%; in assay [3] (dose 1 Mg/ear, average±S.E.), 62 ± 11%; in assay [3] (setting [11]) it was 41%. In addition, the “MPO (% inhibition)” value stood at 22 ± 9% in [3] (dose 0.2 Mg/ear, average±S.E.); 67 ± 23% in assay [3] (dose 0.6 Mg/ear, average±S.E.); 81 ± 5% in [3] (dose 1 Mg/ear, average±S.E.).
Regarding `C/C(=C\CSC[C@H](NC(=O)N1CCC[C@H]1C(=O)O)C(=O)O)CCCC(C)CCCC(C)CCCC(C)C` (stereo partly drawn) [Compound E], in assay [5], the MIC amounted to 5 µg/mL (≈ 9.25 µM). The “IL-8 Protein % inhibition” value in [7] is listed as 67%. Besides, in assay [8], the TNFa-Protein % inhibition is on record as 0%. In addition, the inhibition at 30 pM in [9] came out at 8%. The pIC50 in assay [1] is 4.38; in assay [2] it was 4.20; in assay [6], 8.52; in assay [4] it was 5.82. The inhibition in vivo at 3 % strength in assay [3] (setting [10]) came out at 51%. For the same compound, the “Edema (% inhibition)” value in assay [3] (dose 0.6 Mg/ear, average±S.E.) was determined as 22%; in [3] (dose 1 Mg/ear, average±S.E.), 51 ± 9%. In assay [6], the “P. acnes-induced IL-8 production” value is “inhibit IL-8 production”.
As to `C/C(=C\CSCC(NC(=O)N(CC(=O)O)CC(=O)O)C(=O)O)CCCC(C)CCCC(C)CCCC(C)C` (stereo not drawn) [Compound G], in [5], the MIC turned out to be 4 µg/mL (≈ 7.16 µM). Also, the “IL-8 Protein % inhibition” value in assay [7] was found to be 74%. Moreover, the TNFa-Protein % inhibition in assay [8] stood at 0%. The inhibition at 30 pM in assay [9] was 0%. Besides, the inhibition in vivo at 3 % strength in assay [3] (setting [10]) worked out at 41%. Moreover, the “Edema (% inhibition)” value in [3] (dose 0.6 Mg/ear, average±S.E.) worked out at 41%. The pIC50 in [6] was 7.17; in assay [4], 7.70. Further, the “P. acnes-induced IL-8 production” value in assay [6] is “inhibit IL-8 production”.
Take `C/C(=C\CSC[C@H](NC(=O)COCC(=O)O)C(=O)O)CCCC(C)CCCC(C)CCCC(C)C` (stereo partly drawn) [Compound T]: the MIC in [5] came to 22 µg/mL (≈ 42.7 µM). Further, the inhibition at 30 pM in [9] is 0%. Also, the figures for the pIC50 in assay [1], in assay [2] and in assay [4] were 4.60, 5.05 and 7.00, respectively. Besides, in [3] (setting [10]), the inhibition in vivo at 3 % strength stood at 31%. In addition, the “Edema (% inhibition)” value came to 20 ± 4% in assay [3] (dose 0.2 Mg/ear, average±S.E.); 31 ± 6% in assay [3] (dose 0.6 Mg/ear, average±S.E.); 53 ± 8% in [3] (dose 1 Mg/ear, average±S.E.). The “MPO (% inhibition)” value in assay [3] (dose 0.2 Mg/ear, average±S.E.) was found to be 30 ± 14%; in [3] (dose 0.6 Mg/ear, average±S.E.), 41 ± 18%; in [3] (dose 1 Mg/ear, average±S.E.), 71 ± 3%. The same compound returned an IL-4 (% inhibition) in assay [3] (setting [11]) of 53%.

The record behind these values is patent US11802107B2, “Compounds and methods of use” (Signum Biosciences, Inc., priority 2017, dated 2023).
